Laboratory results: US20140228440A1, “1-AMINO-ALKYLCYCLOHEXANE DERIVATIVES FOR THE TREATMENT OF INFLAMMATORY SKIN DISEASES” (MERZ PHARMA GmbH & CO. KGaA, priority 2008, published 2014)

System: Propionibacterium granulosum ATCC 11829
Assay: MIC and MBC by the agar dilution method
Type: cell-based
[1] = final concentration 0.08 %, pH 5.5
[2] = final concentration 0.08 %, pH 6.0
[3] = final concentration 0.08 %, pH 7.4
[4] = final concentration 0.16 %, pH 5.5
[5] = final concentration 0.16 %, pH 6.0
[6] = final concentration 0.16 %, pH 7.4
[7] = final concentration 0.31 %, pH 5.5
[8] = final concentration 0.31 %, pH 6.0
[9] = final concentration 0.31 %, pH 7.4
[10] = final concentration 0.63 %, pH 5.5
[11] = final concentration 0.63 %, pH 6.0
[12] = final concentration 0.63 %, pH 7.4
[13] = final concentration 1.56 %, pH 5.5
[14] = final concentration 1.56 %, pH 6.0
[15] = final concentration 1.56 %, pH 7.4
[16] = final concentration 2.50 %, pH 5.5
[17] = final concentration 2.50 %, pH 6.0
[18] = final concentration 2.50 %, pH 7.4
[19] = final concentration 3.13 %, pH 5.5
[20] = final concentration 3.13 %, pH 6.0
[21] = final concentration 3.13 %, pH 7.4
[22] = final concentration 6.25 %, pH 5.5
[23] = final concentration 6.25 %, pH 6.0
[24] = final concentration 6.25 %, pH 7.4

growth of bacteria on duplicate plates (MIC determination) (final concentration 0.01 %, pH 5.5): + + | growth of bacteria on duplicate plates (MIC determination) (final concentration 0.01 %, pH 6.0): + + | growth of bacteria on duplicate plates (MIC determination) (final concentration 0.01 %, pH 7.4): + + | growth of bacteria on duplicate plates (MIC determination) (final concentration 0.04 %, pH 5.5): + + | growth of bacteria on duplicate plates (MIC determination) (final concentration 0.04 %, pH 6.0): + − | growth of bacteria on duplicate plates (MIC determination) (final concentration 0.04 %, pH 7.4): + − | growth of bacteria on duplicate plates (MIC determination) [1]: − − | growth of bacteria on duplicate plates (MIC determination) [2]: − − | growth of bacteria on duplicate plates (MIC determination) [3]: − − | growth of bacteria on duplicate plates (MIC determination) [4]: − − | growth of bacteria on duplicate plates (MIC determination) [5]: − − | growth of bacteria on duplicate plates (MIC determination) [6]: − − | growth of bacteria on duplicate plates (MIC determination) [7]: − − | growth of bacteria on duplicate plates (MIC determination) [8]: − − | growth of bacteria on duplicate plates (MIC determination) [9]: − − | growth of bacteria on duplicate plates (MIC determination) [10]: − − | growth of bacteria on duplicate plates (MIC determination) [11]: − − | growth of bacteria on duplicate plates (MIC determination) [12]: − − | growth of bacteria on duplicate plates (MIC determination) [13]: − − | growth of bacteria on duplicate plates (MIC determination) [14]: − − | growth of bacteria on duplicate plates (MIC determination) [15]: − − | growth of bacteria on duplicate plates (MIC determination) [16]: − − | growth of bacteria on duplicate plates (MIC determination) [17]: − − | growth of bacteria on duplicate plates (MIC determination) [18]: − − | growth of bacteria on duplicate plates (MIC determination) [19]: − − | growth of bacteria on duplicate plates (MIC determination) [20]: − − | growth of bacteria on duplicate plates (MIC determination) [21]: − − | growth of bacteria on duplicate plates (MIC determination) [22]: − − | growth of bacteria on duplicate plates (MIC determination) [23]: − − | growth of bacteria on duplicate plates (MIC determination) [24]: − − | MIC (pH 5.5): 0.08% | MIC (pH 6.0): 0.08% | MIC (pH 7.4): 0.08%
Compound: CC1(C)CC(C)(C)CC(C)(N)C1.CS(=O)(=O)O [Neramexane mesylate]
growth of bacteria (MBC determination) [1]: + + | growth of bacteria (MBC determination) [2]: + + | growth of bacteria (MBC determination) [3]: + + | growth of bacteria (MBC determination) [4]: + + | growth of bacteria (MBC determination) [5]: + + | growth of bacteria (MBC determination) [6]: + + | growth of bacteria (MBC determination) [7]: + + | growth of bacteria (MBC determination) [8]: − − | growth of bacteria (MBC determination) [9]: + + | growth of bacteria (MBC determination) [10]: − − | growth of bacteria (MBC determination) [11]: − − | growth of bacteria (MBC determination) [12]: + + | growth of bacteria (MBC determination) [13]: − − | growth of bacteria (MBC determination) [14]: − − | growth of bacteria (MBC determination) [15]: − − | growth of bacteria (MBC determination) [16]: − − | growth of bacteria (MBC determination) [17]: − − | growth of bacteria (MBC determination) [18]: − − | growth of bacteria (MBC determination) [19]: − − | growth of bacteria (MBC determination) [20]: − − | growth of bacteria (MBC determination) [21]: − − | growth of bacteria (MBC determination) [22]: − − | growth of bacteria (MBC determination) [23]: − − | growth of bacteria (MBC determination) [24]: − − | MBC (pH 5.5): 0.63% | MBC (pH 6.0): 0.31% | MBC (pH 7.4): 1.56%
